Values of other authors in patent EP1680106B1, “COMBINATION TREATMENT OF OBESITY INVOLVING 4,5-DIHYDRO-1H-PYRAZOLE DERIVATIVES HAVING CB1-ANTAGONISTIC ACTIVITY AND LIPASE INHIBITORS” (Solvay Pharmaceuticals GmbH, priority 2003, dated 2005).

What was measured:
[1] = test system: carragheenin-induced swelling; settings: mice
[2] = atypical antipsychotics, follow-up studies
[3] = healthy male volunteers, 5 days with meals; ATL-962 50 mg to 300 mg, orlistat 120 mg tid; placebo 1.4 (+/-1.0)

Compound	weight gain with long-term treatment [2]	further results
Ebelactone B		carragheenin-induced swelling [1]: reduces carragheenin-induced swelling
CN1CCN(C2=Nc3cc(Cl)ccc3Nc3ccccc32)CC1 [clozapine]	largest weight gains	
CCCCCCCCCCC[C@@H](C[C@@H]1OC(=O)[C@H]1CCCCCC)OC(=O)[C@H](CC(C)C)NC=O [tetrahydrolipstatin, (2S,3S,5S)-5-((S)-2-4-methylvaleryloxy)-2-hexyl-3-hydroxy-hexadecanoic acid lactone]		average fat excreted [3]: 5.6 (+/-3.8) g/day
OCCOCCN1CCN(C2=Nc3ccccc3Sc3ccccc32)CC1 [quetiapine]	smallest	
O=C1Cc2cc(CCN3CCN(c4nsc5ccccc45)CC3)c(Cl)cc2N1 [ziprasidone]	smallest	
Cc1nc2n(c(=O)c1CCN1CCC(c3noc4cc(F)ccc34)CC1)CCCC2 [Risperidone]	modest weight changes that are not dose related	
Cc1cc2c(s1)Nc1ccccc1N=C2N1CCN(C)CC1 [olanzapine]	largest weight gains	
